Results on 2 molecules are retold here after PubChem BioAssay AID1845219 (Molecular Pharmacology Branch, DTP, NCI, 2023).

Each structure is given as a SMILES string. Values joined by “and” are separate entries in the source; they are usually repeats but may differ in a detail not shown here. Equal entries are not always repeated. Bounds are passed on as bounds.

This test has as its system SYO-1 tumor spheroids, viability % test/control. Briefly: Anticancer human tumor SYO-1 cell line growth inhibition.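 On all read-outs here: spheroids exposed to agents for 7 days before viability read.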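 On viability, T/C: 100% = DMSO vehicle control.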 Particulars: spheroids with HUVEC and MSC; for viability, T/C: stronger effect = lower value. The method in brief: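 Complex spheroids of malignant cells with endothelial cells and mesenchymal stem cells; agents alone or combined, from near clinical Cmax (or 10 microM if unknown) down in half-log steps, 0.25% DMSO final.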

With `CC1COCCN1c1cc(-c2ccnn2C)c2ccnc(-c3ccn[nH]3)c2n1` (configuration not stated) + CC[C@@]1(O)C(=O)OCc2c1cc1n(c2=O)Cc2cc3c(CN(C)C)c(O)ccc3nc2-1, the IC50 was under 31.6 nM (curve of first compound, second compound 0.003 µM); under 31.6 nM (curve of first compound, second compound 0.00949 µM); under 31.6 nM (curve of first compound, second compound 0.03 µM); under 31.6 nM (curve of first compound, second compound 0.0949 µM); under 31.6 nM (curve of first compound, second compound 0.3 µM). Further, the viability, T/C by setting is: (second compound 0.003 µM, first compound 0.0316 µM) 2.41%; (second compound 0.003 µM, first compound 0.1 µM) 1.6%; (second compound 0.003 µM, first compound 0.316 µM) 1.52%; (second compound 0.003 µM, first compound 1 µM) 1.01%; (second compound 0.003 µM, first compound 3.16 µM) 0.46%; (second compound 0.003 µM, first compound 10 µM) 0.49%. Further, the viability, T/C was 1.89% (second compound 0.00949 µM, first compound 0.0316 µM); 1.76% (second compound 0.00949 µM, first compound 0.1 µM); 1.42% (second compound 0.00949 µM, first compound 0.316 µM); 0.94% (second compound 0.00949 µM, first compound 1 µM); 0.47% (second compound 0.00949 µM, first compound 3.16 µM); 0.42% (second compound 0.00949 µM, first compound 10 µM). For the same molecule, the viability, T/C (second compound 0.03 µM, first compound 0.0316 µM) was 1.75%; the viability, T/C (second compound 0.03 µM, first compound 0.1 µM) was 1.64%; the viability, T/C (second compound 0.03 µM, first compound 0.316 µM) was 1.18%; the viability, T/C (second compound 0.03 µM, first compound 1 µM) was 0.74%; the viability, T/C (second compound 0.03 µM, first compound 3.16 µM) was 0.43%; the viability, T/C (second compound 0.03 µM, first compound 10 µM) is 0.42%. Besides, the viability, T/C (second compound 0.0949 µM, first compound 0.0316 µM) is 1.31%; the viability, T/C (second compound 0.0949 µM, first compound 0.1 µM) was 1.48%; the viability, T/C (second compound 0.0949 µM, first compound 0.316 µM) is 0.96%; the viability, T/C (second compound 0.0949 µM, first compound 1 µM) was 0.68%; the viability, T/C (second compound 0.0949 µM, first compound 3.16 µM) was 0.44%; the viability, T/C (second compound 0.0949 µM, first compound 10 µM) was 0.41%. Also, the viability, T/C reads like this: (second compound 0.3 µM, first compound 0.0316 µM) 1.79%; (second compound 0.3 µM, first compound 0.1 µM) 1.55%; (second compound 0.3 µM, first compound 0.316 µM) 1.05%; (second compound 0.3 µM, first compound 1 µM) 0.66%; (second compound 0.3 µM, first compound 3.16 µM) 0.47%; (second compound 0.3 µM, first compound 10 µM) 0.49%.
In the case of `[2H]c1nc(C)nc([2H])c1-c1cc(NC[C@@H](C)c2cccc3c(C(=O)NC)ccnc23)ncn1`, the viability, T/C (compound 0.0316 µM) is 107% and 105% and 96.2%; the viability, T/C (compound 0.1 µM) is 105% and 104% and 102%; the viability, T/C (compound 0.316 µM) was 105% (2×) and 102%; the viability, T/C (compound 1 µM) is 105% and 99% and 98.5%; the viability, T/C (compound 3.16 µM) was 104% (2×) and 96.3%; the viability, T/C (compound 10 µM) is 100% and 95.5% and 101%. Further, the IC50 (curve of compound) was over 10000 nM.
